Test results: ChEMBL document CHEMBL2163212, “Antivirals targeting influenza A virus” (J Med Chem, 2012)
pIC50: −log10 of the molar value.

Tested on: Influenza A virus
Test: Antiviral activity against Influenza A virus assessed as inhibition of cap dependent viral transcription
Assay type: functional, organism-based

SMILES: O=C(O)/C(O)=C/C(=O)C1(Cc2ccc(Cl)cc2)CCCN(Cc2ccccc2)C1 (configuration not stated)
- pIC50: 6.00

SMILES: O=C(O)/C(O)=C/C(=O)C1(Cc2ccc(Cl)cc2)CCN(Cc2ccccc2)CC1
- pIC50: 6.00
